Experimental findings from patent publication US20250179073A1, “TRICYCLIC HETEROCYCLE COMPOUNDS AS IAP ANTAGONISTS” (Ascentage Pharma (Suzhou) Co., Ltd., priority 2022, published 2025) are described below.

This experiment has as its system MDA-MB-231 cells. Briefly: Cell proliferation assay (CellTiter-Glo), MDA-MB-231. The experiment is classed as cell-based. The settings on record: Homo sapiens, MDA-MB-231, 72 h, 72 h treatment, Celltiter-Glo luminescence. The essentials: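 Compounds tested over ten concentrations ([…]) for 72 h on EVSA-T cells in MEM/10% FBS and MDA-MB-231 cells in RPMI-1640/10% FBS, seeded at 10000/well. Luminescent CellTiter-Glo readout; IC50 fitted after normalisation to controls.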
Turning to `[2H]C([2H])([2H])NC(=O)c1nc2c(Cc3ccc(F)cc3)cc3c(n2n1)C(C)(C)CN3C(=O)CN1C[C@@H](C)NC[C@@H]1CN1CCOC[C@H]1C` [Compound 258, 4-(4-fluorobenzyl)-8,8-dimethyl-N-(methyl-d3)-6-(2-((2R,5R)-5-methyl-2-(((R)-3-methylmorpholino)methyl)piperazin-1-yl)acetyl)-7,8-dihydro-6H-pyrrolo[2,3-e][1,2,4]triazolo[1,5-a]pyridine-2-carboxamide], the IC50 (commonly the concentration needed to halve the response being measured) is 195 nM.
In the case of `C[C@@H]1CN(CC(=O)N2CC(C)(C)c3c2cc(Cc2ccc(F)cc2)c2nn(C(CO)CO)c(=O)n32)[C@@H](CN2CCOC[C@H]2C)CN1` [Compound 268, 2-(1,3-dihydroxypropan-2-yl)-4-(4-fluorobenzyl)-8,8-dimethyl-6-(2-((2R,5R)-5-methyl-2-(((R)-3-methylmorpholino)methyl)piperazin-1-yl)acetyl)-2,6,7,8-tetrahydro-1H-pyrrolo[2,3-e][1,2,4]triazolo[4,3-a]pyridin-1-one] it was 350 nM; in that of `C[C@@H]1CN(CC(=O)N2CC(C)(C)c3c2cc(Cc2ccc(F)cc2F)c2nn(CC(C)(C)O)c(=O)n32)[C@@H](CN2CCOC[C@H]2C)CN1` [Compound 274, 4-(2,4-difluorobenzyl)-2-(2-hydroxy-2-methylpropyl)-8,8-dimethyl-6-(2-((2R,5R)-5-methyl-2-(((R)-3-methylmorpholino)methyl)piperazin-1-yl)acetyl)-2,6,7,8-tetrahydro-1H-pyrrolo[2,3-e][1,2,4]triazolo[4,3-a]pyridin-1-one], 9 nM.
Consider `C[C@@H]1CN(CC(=O)N2CC(C)(C)c3c2cc(Cc2ccc(F)cc2)c2nn(CC(C)(C)O)c(=O)n32)[C@@H](CN2C3CCC2COC3)CN1` [Compound 276, 6-(2-((2R,5R)-2-((3-oxa-8-azabicyclo[3.2.1]octan-8-yl)methyl)-5-methylpiperazin-1-yl)acetyl)-4-(4-fluorobenzyl)-2-(2-hydroxy-2-methylpropyl)-8,8-dimethyl-2,6,7,8-tetrahydro-1H-pyrrolo[2,3-e][1,2,4]triazolo[4,3-a]pyridin-1-one], for which the IC50 is 390 nM.
As for `C[C@@H]1CN(CC(=O)N2CC(C)(C)c3c2cc(Cc2ccc(F)cc2)c2nn(CC(C)(C)O)c(=O)n32)[C@@H](CN2CCOCC2(C)C)CN1` [Compound 277, 6-(2-((2R,5R)-2-((3,3-dimethylmorpholino)methyl)-5-methylpiperazin-1-yl)acetyl)-4-(4-fluorobenzyl)-2-(2-hydroxy-2-methylpropyl)-8,8-dimethyl-2,6,7,8-tetrahydro-1H-pyrrolo[2,3-e][1,2,4]triazolo[4,3-a]pyridin-1-one], the IC50 worked out at 67 nM.
To `COC(=O)N1CCN(C[C@H]2CN[C@H](C)CN2CC(=O)N2CC(C)(C)c3c2cc(Cc2ccc(F)cc2)c2nn(CC(C)(C)O)c(=O)n32)[C@H](C)C1` [Compound 280, methyl (R)-4-(((2R,5R)-1-(2-(4-(4-fluorobenzyl)-2-(2-hydroxy-2-methylpropyl)-8,8-dimethyl-1-oxo-1,2,7,8-tetrahydro-6H-pyrrolo[2,3-e][1,2,4]triazolo[4,3-a]pyridin-6-yl)-2-oxoethyl)-5-methylpiperazin-2-yl)methyl)-3-methylpiperazine-1-carboxylate] belongs 68 nM.
On to `C[C@@H]1CN(CC(=O)N2CC(C)(C)c3c2cc(Cc2ccc(F)cc2)c2nn(CC(C)(C)O)c(=O)n32)[C@@H](CN2CCC(F)(F)C[C@H]2C)CN1` [Compound 281, 6-(2-((2R,5R)-2-(((R)-4,4-difluoro-2-methylpiperidin-1-yl)methyl)-5-methylpiperazin-1-yl)acetyl)-4-(4-fluorobenzyl)-2-(2-hydroxy-2-methylpropyl)-8,8-dimethyl-2,6,7,8-tetrahydro-1H-pyrrolo[2,3-e][1,2,4]triazolo[4,3-a]pyridin-1-one], for which the IC50 was 26 nM.
To `CC(=O)N1CCN(C[C@H]2CN[C@H](C)CN2CC(=O)N2CC(C)(C)c3c2cc(Cc2ccc(F)cc2)c2nn(CC(C)(C)O)c(=O)n32)[C@H](C)C1` [Compound 282, 6-(2-((2R,5R)-2-(((R)-4-acetyl-2-methylpiperazin-1-yl)methyl)-5-methylpiperazin-1-yl)acetyl)-4-(4-fluorobenzyl)-2-(2-hydroxy-2-methylpropyl)-8,8-dimethyl-2,6,7,8-tetrahydro-1H-pyrrolo[2,3-e][1,2,4]triazolo[4,3-a]pyridin-1-one] belongs 660 nM; to `C[C@@H]1CN(CC(=O)N2CC(C)(C)c3c2cc(Cc2ccc(F)cc2)c2nn(CC(C)(C)O)c(=O)n32)[C@@H](CN2C[C@@H]3C[C@H]2CO3)CN1` [Compound 283, 6-(2-((2R,5R)-2-(((1S,4S)-2-oxa-5-azabicyclo[2.2.1]heptan-5-yl)methyl)-5-methylpiperazin-1-yl)acetyl)-4-(4-fluorobenzyl)-2-(2-hydroxy-2-methylpropyl)-8,8-dimethyl-2,6,7,8-tetrahydro-1H-pyrrolo[2,3-e][1,2,4]triazolo[4,3-a]pyridin-1-one], 360 nM; to `C[C@@H]1CN(CC(=O)N2CC(C)(C)c3c2cc(Cc2ccc(F)cc2)c2nn(CC(C)(C)O)c(=O)n32)[C@@H](CN2C[C@H]3C[C@@H]2CO3)CN1` [Compound 284, 6-(2-((2R,5R)-2-(((1R,4R)-2-oxa-5-azabicyclo[2.2.1]heptan-5-yl)methyl)-5-methylpiperazin-1-yl)acetyl)-4-(4-fluorobenzyl)-2-(2-hydroxy-2-methylpropyl)-8,8-dimethyl-2,6,7,8-tetrahydro-1H-pyrrolo[2,3-e][1,2,4]triazolo[4,3-a]pyridin-1-one], 250 nM.
`C[C@@H]1CN(CC(=O)N2CC(C)(C)c3c2cc(Cc2ccc(F)cc2)c2nn(CC(C)(C)O)c(=O)n32)[C@@H](CN2CC3CC(C2)O3)CN1` [Compound 286, 6-(2-((2R,5R)-2-((6-oxa-3-azabicyclo[3.1.1]heptan-3-yl)methyl)-5-methylpiperazin-1-yl)acetyl)-4-(4-fluorobenzyl)-2-(2-hydroxy-2-methylpropyl)-8,8-dimethyl-2,6,7,8-tetrahydro-1H-pyrrolo[2,3-e][1,2,4]triazolo[4,3-a]pyridin-1-one]: the half-maximal inhibitory concentration (IC50) came out at 270 nM.
Turning to `C[C@@H]1CN(CC(=O)N2CC(C)(C)c3c2cc(Cc2ccc(F)cc2)c2nn(CC(C)(C)O)c(=O)n32)[C@@H](CN2CC3CCC2CO3)CN1` (stereo partly drawn) [Compound 287, 6-(2-((2R,5R)-2-((2-oxa-5-azabicyclo[2.2.2]octan-5-yl)methyl)-5-methylpiperazin-1-yl)acetyl)-4-(4-fluorobenzyl)-2-(2-hydroxy-2-methylpropyl)-8,8-dimethyl-2,6,7,8-tetrahydro-1H-pyrrolo[2,3-e][1,2,4]triazolo[4,3-a]pyridin-1-one], the IC50 came out at 480 nM.
In the case of `C[C@@H]1CN(CC(=O)N2CC(C)(C)c3c2cc(Cc2ccc(F)cc2)c2nn(CC(C)(C)O)c(=O)n32)[C@@H](CN2CC(F)(F)C[C@H]2C)CN1` [Compound 288, 6-(2-((2R,5R)-2-(((R)-4,4-difluoro-2-methylpyrrolidin-1-yl)methyl)-5-methylpiperazin-1-yl)acetyl)-4-(4-fluorobenzyl)-2-(2-hydroxy-2-methylpropyl)-8,8-dimethyl-2,6,7,8-tetrahydro-1H-pyrrolo[2,3-e][1,2,4]triazolo[4,3-a]pyridin-1-one] it was 29 nM.
As to `C[C@@H]1CN(CC(=O)N2CC(C)(C)c3c2cc(Cc2ccc(F)cc2)c2nn(CC(C)(C)O)c(=O)n32)[C@@H](CN2C3COCC2C3)CN1` [Compound 289, 6-(2-((2R,5R)-2-((3-oxa-6-azabicyclo[3.1.1]heptan-6-yl)methyl)-5-methylpiperazin-1-yl)acetyl)-4-(4-fluorobenzyl)-2-(2-hydroxy-2-methylpropyl)-8,8-dimethyl-2,6,7,8-tetrahydro-1H-pyrrolo[2,3-e][1,2,4]triazolo[4,3-a]pyridin-1-one], the IC50 came out at 1700 nM.
Turning to `CCc1ncc2c(Cc3ccc(F)cc3)cc3c(n12)C(C)(C)CN3C(=O)CN1C[C@@H](C)NC[C@@H]1CN1CCOC[C@H]1C` [Example 4, 1-(1-ethyl-4-(4-fluorobenzyl)-8,8-dimethyl-7,8-dihydro-6H-imidazo[1,5-a]pyrrolo[2,3-e]pyridin-6-yl)-2-((2R,5R)-5-methyl-2-(((R)-3-methylmorpholino)methyl)piperazin-1-yl)ethan-1-one], the IC50 amounted to 97 nM.
To `CC(C)c1ncc2c(Cc3ccc(F)cc3)cc3c(n12)C(C)(C)CN3C(=O)CN1C[C@@H](C)NC[C@@H]1CN1CCOC[C@H]1C` [Example 5, 1-(4-(4-fluorobenzyl)-1-isopropyl-8,8-dimethyl-7,8-dihydro-6H-imidazo[1,5-a]pyrrolo[2,3-e]pyridin-6-yl)-2-((2R,5R)-5-methyl-2-(((R)-3-methylmorpholino)methyl)piperazin-1-yl)ethan-1-one] belongs 160 nM; to `C[C@@H]1CN(CC(=O)N2CC(C)(C)c3c2cc(Cc2ccc(F)cc2)c2cnc(C4CCC4)n32)[C@@H](CN2CCOC[C@H]2C)CN1` [Example 6, 1-(1-cyclobutyl-4-(4-fluorobenzyl)-8,8-dimethyl-7,8-dihydro-6H-imidazo[1,5-a]pyrrolo[2,3-e]pyridin-6-yl)-2-((2R,5R)-5-methyl-2-(((R)-3-methylmorpholino)methyl)piperazin-1-yl)ethan-1-one], 50 nM.
To `C[C@@H]1CN(CC(=O)N2CC(C)(C)c3c2cc(Cc2ccc(F)cc2)c2cnc(C4CCOCC4)n32)[C@@H](CN2CCOC[C@H]2C)CN1` [Example 7, 1-(4-(4-fluorobenzyl)-8,8-dimethyl-1-(tetrahydro-2H-pyran-4-yl)-7,8-dihydro-6H-imidazo[1,5-a]pyrrolo[2,3-e]pyridin-6-yl)-2-((2R,5R)-5-methyl-2-(((R)-3-methylmorpholino)methyl)piperazin-1-yl)ethan-1-one] belongs 140 nM.
